Read-outs that look alike come from different tables or passages of the source.
Tests used:
HCV = experiment: In vitro anti-HCV assay in HCV RNA-replicating cell line AVA5; assay type: cell-based
Procedure: The antiviral activity of test compounds were assayed in the stably HCV RNA-replicating cell line. AVA5, derived by transfection of the human hepatoblastoma cell line, Huh^7 (Blight et al., 2000). Experimental drugs were added to dividing cultures once daily for three days. Media was changed with each addition of compound. Cultures generally started the assays at 50% confluence and reached confluence during the last day of treatment. HCV RNA and cellular β-actin RNA levels were assessed 24 hours after the last dose of compound using dot blot hybridization. Assays were conducted using a single dose of test compound (in triplicate cultures).
Both HCV and β-actin RNA levels in the treated cultures were expressed as a percentage of the mean levels of RNA detected in untreated cultures. β-actin RNA levels were used both as a measure of toxicity, and to normalize the amount of cellular RNA in each sample. A level of 30% or less HCV RNA (relative to control cultures) was considered to be a positive antiviral effect, and a level of 50% or less β-actin RNA (relative to control cultures) is considered to be a cytotoxic effect.
Dividing cultures of AVAB cells were treated once daily for three days (media was changed with each addition of compound) with 4 concentrations of test compounds (3 cultures per concentration). A total of 6 untreated control cultures, and triplicate cultures treated with 10, 3, and 1 IU/ml α-interferon (active antiviral with no cytotoxicity), and 100, 10, and 1 μM ribavir ([…]) served as controls. HCV RNA and cellular β-actin FNA levels were assessed 24 hours after the last dose of compound using dot blot hybridization. β-actin RNA levels were used to normalize the amount of cellular RNA in each sample.
Toxicity analyses were performed on separate plates from those used for the antiviral assays. Cells for the toxicity analyses were cultured and treated with test compounds with the same schedule and under identical culture conditions used for the antiviral evaluations. Each compound was tested at 4 concentrations, each in triplicate cultures. Uptake of neutral red dye was used to determine the relative level of toxicity 24 hours following the last treatment. The absorbance of internalized dye at […] (A510) was used for the quantitative analysis. Values in test cultures were compared to 9 cultures of untreated cells maintained on the same plate as the test cultures.
Assays similar to those described above were conducted.

HSV-1 = conditions: in general 1000-fold less drug than Examples 1-6 and 10
HSV-2 = conditions: in general 1000-fold less drug than Examples 1-6 and 10
West Nile = experiment: In vitro antiviral screening (Table 1), West Nile
HSV-1 strain KOS1.1 = assay type: cell-based
[1] = test system: dlsptk (an ACV-resistant, tk deletion mutant of HSV-1); assay type: cell-based; conditions: MOI 10, 20 μM (4.5 μg/ml) ACV or 6.4 mg/ml β-CD for 24 hours
Vero cells = experiment: Cell viability by LDH release assay; assay type: cell-based; conditions: acyclovir 400 μg/ml, 24 and 48 hours, Vero cells
Procedure: FIG. 3 depicts the effects of ACV alone (400 μg/ml) and β-CD alone (8 mg/ml) on the viability of Vero cells as monitored by the LDH release assay after 24 hours of treatments (A); and after 48 hours of treatments (B). All data represents means+SD of two separate experiments.
Cell viability assay. Cell viability was determined fluorometrically by estimating the release of LDH into the media (Moran and Schnellman, 1996). LDH activity was based on the reduction of pyruvate to lactate. The concomitant oxidation of NADH results in a decrease in the fluorescence emission at 450 nm with excitation wavelength 355 nm, and the rate of disappearance of NADH is indicative of LDH activity.
To study the effects of formulations on viability of preformed monolayers, 3 to 4×10^6 Vero cells were added to 1× MEM-5% FBS in T75 flasks. […] Used media were replaced with 15 ml of treatment media, containing 5× MEM-FBS diluted to 1× with water (control), acyclovir stock (400 μg/ml), or β-CD stock (8 mg/ml in water). […]
Reaction solution was made fresh for each experiment by mixing 0.4 ml of 16.2 mM pyruvate with 10 ml of 0.2 mM NADH in phosphate buffer (pH 7.5). […] The amount of LDH calculated for either condition was then compared with and expressed as a percentage of the total LDH present.
Used media were replaced with 15 ml/flask or 2.5 ml/well of treatment media, containing 5× MEM-FBS diluted to 1× with water (control), and […]CD stock. […] Live cells are distinguished by the presence of intracellular esterase activity, as determined by the enzymatic conversion of calcein-AM (nonfluorescent) to calcein (green fluorescence). EthD-1 enters cells with damaged cell membranes and binds to nucleic acids producing red fluorescence to identify dead cells. […] For LDH assays, cells were trypsinized, resuspended in fresh 1× medium, kept at 37° C.-5% CO2 atmosphere, and total LDH present in cells and medium was determined after lysing the cells with 350 μM digitonin. The amount of LDH calculated for either condition was then compared with and expressed as a percentage of the total LDH present. […]

Molecule: CC(O)COC[C@H]1O[C@@H]2O[C@H]3[C@H](O)[C@@H](O)[C@@H](O[C@H]4[C@H](O)[C@@H](O)[C@@H](O[C@H]5[C@H](O)[C@@H](O)[C@@H](O[C@H]6[C@H](O)[C@@H](O)[C@@H](O[C@H]7[C@H](O)[C@@H](O)[C@@H](O[C@H]8[C@H](O)[C@@H](O)[C@@H](O[C@H]1[C@H](O)[C@H]2O)O[C@@H]8COCC(C)O)O[C@@H]7COCC(C)O)O[C@@H]6COCC(C)O)O[C@@H]5COCC(C)O)O[C@@H]4COCC(C)O)O[C@@H]3COCC(C)O (stereo partly drawn) [HPBCD, hydroxypropyl β-cyclodextrin]
- S.I. for HCV (HCV): 1.26
- SI = CC50/EC50 (HSV-1): 0
- SI = CC50/EC50 (HSV-2): 0
- SI = CC50/EC50 (VZV): 0
- SI = CC50/EC50 (HCMV): 0
- SI = CC50/EC50 (MCMV): 0
- SI = CC50/EC50 (HHV-6): 0
- SI = CC50/EC50 (HHV-7): 0
- SI = CC50/EC50 (Flu A): 0
- SI = CC50/EC50 (Flu B): 0
- SI = CC50/EC50 (RSV): 0
- SI = CC50/EC50 (PIV): 0
- SI = CC50/EC50 (MV): 0
- SI = CC50/EC50 (HRV): 0
- SI = CC50/EC50 (Ad): 0
- SI = CC50/EC50 (Resp syncytial): 0
- SI = CC50/EC50 (Rhino): 0
- SI = CC50/EC50 (Vaccinia): 0
- SI = CC50/EC50 (Cowpox): 0
- SI = CC50/EC50 (Measles): 0
- SI = CC50/EC50 (VEE): 0
- SI = CC50/EC50 (Punta Toro): 0
- SI = CC50/EC50 (Pichinde): 0
- SI = CC50/EC50 (Yellow fever): 0
- SI = CC50/EC50 (West Nile): 0

Molecule: hydroxypropyl γ-cyclodextrin [HPGCD]
- S.I. for HCV (HCV): 1.39
- SI = CC50/EC50, value in parenthesis calculated by DNA hybridization (EBV; DNA hybridization): 6.2
- SI = CC50/EC50 (West Nile): 0

Molecule: hydroxypropyl α-cyclodextrin [HPACD]
- S.I. for HCV (HCV): 0.97
- SI = CC50/EC50 (West Nile): 0

Molecule: α-interferon
- approximate EC90 (HCV; positive antiviral control, no cytotoxicity): ~10 IU/ml

Molecule: Nc1nc2c(ncn2COCCO)c(=O)[nH]1 [ACV, acyclovir, reference compound]
- reduction of KOS1.1 yield at 24 hours (HSV-1 strain KOS1.1; 4.5 μg/ml ACV, MOI 10, post-infection treatment): 10^2 fold
- yield of cell-free and cell-associated virus (HSV-1 strain KOS1.1; 24 hours post-infection, MOI 50, BCD 7.2 mg/ml, ACV 400 μg/ml or both, pre, during and post infection treatment (FIG. 1)): markedly decreased
- effect on yield of acyclovir-sensitive HSV KOS1.1 (FIG. 2) (HSV-1 strain KOS1.1; MOI 10, 20 μM ACV or 6.4 mg/ml β-CD for 24 hours): able to lower the yield
- effect on yield of acyclovir-resistant dlsptk virus (FIG. 2) [1]: no activity
- effect on yield of acyclovir-resistant dlsptk virus (FIG. 2) ([1]; listed as acyclovir): not of the acyclovir -resistant mutant
- drug-related cell killing (Vero cells): no drug-related cell killing

Molecule: OC[C@H]1O[C@@H]2O[C@H]3[C@H](O)[C@@H](O)[C@@H](O[C@H]4[C@H](O)[C@@H](O)[C@@H](O[C@H]5[C@H](O)[C@@H](O)[C@@H](O[C@H]6[C@H](O)[C@@H](O)[C@@H](O[C@H]7[C@H](O)[C@@H](O)[C@@H](O[C@H]8[C@H](O)[C@@H](O)[C@@H](O[C@H]9[C@H](O)[C@@H](O)[C@@H](O[C@H]1[C@H](O)[C@H]2O)O[C@@H]9CO)O[C@@H]8CO)O[C@@H]7CO)O[C@@H]6CO)O[C@@H]5CO)O[C@@H]4CO)O[C@@H]3CO [GCD, γ-cyclodextrin]
- S.I. for HCV (HCV): 1.04
- SI = CC50/EC50 (HSV-1): 0
- SI = CC50/EC50 (HSV-2): 0
- SI = CC50/EC50 (VZV): 0
- SI = CC50/EC50 (EBV): 0
- SI = CC50/EC50 (HCMV): 0
- SI = CC50/EC50 (MCMV): 0
- SI = CC50/EC50 (HHV-6): 0
- SI = CC50/EC50 (HHV-7): 0
- SI = CC50/EC50 (Flu A): 0
- SI = CC50/EC50 (Flu B): 0
- SI = CC50/EC50 (RSV): 0
- SI = CC50/EC50 (PIV): 0
- SI = CC50/EC50 (MV): 0
- SI = CC50/EC50 (HRV): 0
- SI = CC50/EC50 (Ad): 0
- SI = CC50/EC50 (Resp syncytial): 0
- SI = CC50/EC50 (Rhino): 0
- SI = CC50/EC50 (Vaccinia): 0
- SI = CC50/EC50 (Cowpox): 0
- SI = CC50/EC50 (Measles): 0
- SI = CC50/EC50 (VEE): 0
- SI = CC50/EC50 (Punta Toro): 0
- SI = CC50/EC50 (Pichinde): 0
- SI = CC50/EC50 (Yellow fever): 0
- SI = CC50/EC50 (West Nile): 0

Source: patent US20070219159A1, “CYCLODEXTRIN COMPOSITIONS AND METHODS OF TREATING VIRAL INFECTIONS” (priority 2002, published 2007)
